The results in this text go back to patent publication US20040220297A1, “Self curing cements” (priority 1999, published 2004).

The data set in a line: Cytotoxicity tests. The data set is classed as cell-based.

Molecules are shown by their SMILES.

Turning to `CCCCCCCC/C=C\CCCCCCCC(=O)OCc1ccc(N(C)C)cc1` [DMAO, 4-N,N-dimethylaminobenzyloleate], the cytotoxicity result is on record as “non-toxic”.
